From PMC3677961 (Chemical biology & drug design, 2008)
One block for each molecule: values may come before it.

Key:
MCF7 = assay: SRB growth inhibition assay, MCF-7 breast cancer cell line; format: cell-based; details: Homo sapiens, MCF7, 96 h, read-out: Cancer cell line IC50, MCF7
LNCaP = assay: SRB growth inhibition assay, LNCaP prostate cancer cell line; format: cell-based; details: Homo sapiens, 96 h, read-out: Cancer cell line IC50, LNCaP
PPC1 = assay: SRB growth inhibition assay, PPC-1 prostate cancer cell line; format: cell-based; details: Homo sapiens, PPC-1, 96 h, read-out: Cancer cell line IC50, PPC1
HT29 = assay: SRB growth inhibition assay, HT-29 colon cancer cell line; format: cell-based; details: Homo sapiens, HT-29, 96 h, read-out: Cancer cell line IC50, HT29
TSU-Pr1 = assay: SRB growth inhibition assay, TSU-Pr1 bladder cancer cell line; format: cell-based; details: Homo sapiens, TSU-Pr1, 96 h, read-out: Cancer cell line IC50, TSU-Pr1
PC3 = assay: SRB growth inhibition assay, PC-3 prostate cancer cell line; format: cell-based; details: Homo sapiens, PC-3, 96 h, read-out: Cancer cell line IC50, PC3
[1] = system: L. donovani axenic amastigotes; details: cited from earlier work
T. b. brucei = details: cited from earlier work
[2] = system: L. donovani axenic amastigotes; format: cell-based; details: Leishmania donovani, read-out: IC50 versus L. donovani axenic amastigotes
[3] = molecular target: T1, colchicine site of mammalian tubulin (Sus scrofa, UniProt P02550+P02554); assay: Competition with MTPT for the colchicine site; format: binding; details: 5 μM mammalian tubulin, 5 μM MTPT
mammalian tubulin = details: read-out: IC50 against mammalian tubulin; cited from earlier work
[4] = cited from earlier work
[5] = molecular target: T1, colchicine site of mammalian tubulin; details: cited from earlier work
[6] = phase I and phase II clinical trials; cited from earlier work
Vero cells = assay: Vero cell cytotoxicity; format: cell-based, African green monkey; details: Chlorocebus sabaeus, read-out: IC50 versus Vero Cells

IC50 (MCF7): 1.3 ± 0.4 nM
IC50 (LNCaP): 3.4 ± 0.9 nM
IC50 (PPC1): 1 ± 0.4 nM
IC50 (HT29): 2.4 ± 0.2 nM
IC50 (TSU-Pr1): 1.6 ± 0.08 nM
IC50 (PC3): 1.4 ± 0.3 nM
SMILES: CC[C@]1(O)C[C@@H]2CN(CCc3c([nH]c4ccccc34)[C@@](C(=O)OC)(c3cc4c(cc3OC)N(C)[C@H]3[C@@](O)(C(=O)OC)[C@H](OC(C)=O)[C@]5(CC)C=CCN6CC[C@]43[C@@H]65)C2)C1 [Vinblastine]

SMILES: CCCN(CCC)c1c([N+](=O)[O-])cc(S(=O)(=O)Nc2ccccc2)cc1[N+](=O)[O-] [Compound 2, N1-phenyl-3,5-dinitro-N4,N4-di-n-propylsulfanilamide]
Activity against Leishmania donovani axenic amastigotes (in words) [1]: low micromolar activity
Activity against Trypanosoma brucei bloodstream forms (in words) (T. b. brucei): mid-nanomolar activity

IC50 [2]: 3200 ± 1500 nM
SMILES: N=C(N)c1ccc(OCCCCCOc2ccc(C(=N)N)cc2)cc1 [Pentamidine]

SMILES: COc1ccc(CCc2cc(OC)c(OC)c(OC)c2)cc1O [Dihydrocombetastatin A4, dihydrocombretastatin A4]
Inhibition (%) of MTPT binding in presence of competitors ([3]; 2 μM competitor): 30 ± 1%
Inhibition (%) of MTPT binding in presence of competitors ([3]; 20 μM competitor): 69 ± 2%
Inhibition (%) of MTPT binding in presence of competitors ([3]; 50 μM competitor): 74 ± 2%

SMILES: COc1ccc(NS(=O)(=O)c2c(F)c(F)c(F)c(F)c2F)cc1NC(N)=O [Compound 30]
IC50 (mammalian tubulin): 2100 nM

SMILES: COc1ccc(NS(=O)(=O)c2c(F)c(F)c(F)c(F)c2F)cc1F [Compound 29]
Toxicity in phase II clinical trials [4]: low levels of toxicity
IC50 (mammalian tubulin): ~2000 nM
Binding site on mammalian tubulin [5]: bind to the colchicine site

SMILES: COc1ccc(S(=O)(=O)Nc2cccnc2Nc2ccc(O)cc2)cc1 [Compound 28]
IC50 (mammalian tubulin): 2200 nM
Binding site on mammalian tubulin [5]: bind to the colchicine site
Oral bioavailability [6]: orally bioavailable

SMILES: COc1cc([C@@H]2c3cc4c(cc3[C@H](O)[C@H]3COC(=O)[C@H]23)OCO4)cc(OC)c1OC [Podophyllotoxin]
IC50 (Vero cells): 50 ± 30 nM
